Test [1] deals with Phytophthora infestans. Conditions: n = 10.
The test system of test [2] is Rhizoctonia solani. The format is cell-based.
The test system of test [3] is Pseudomonas syringae. The format is cell-based.
Test [4] relates to Pythium aphanidermatum. The class given is cell-based.
Test [5] concerns Puccinia sorghi. The format is cell-based. Conditions: 25 ppm.
Test [6] concerns Puccinia triticina. Description: In planta validation in wheat infected with leaf rust, growth chamber. The format is in vivo, Puccinia triticina on wheat. Conditions: sprayed a day before inoculation.
Test [7] concerns Puccinia sorghi. In words: In planta validation: Puccinia sorghi infection of corn seedlings. Conditions: controlled growth conditions, growth rooms, spraying. The class given is in vivo, Puccinia sorghi on corn.
Experimental: • 1) Use: 120×80×80 mm pots, standard garden soil with fertilizer and corn seeds of a rust sensitive variety. • 2) Put pots in a tray and fill the pots with the soil to the top. • 3) Make a small grove for the seeds. • 4) Plant about 10 seeds of corn in each pot. • 5) Cover the seeds with additional soil. • 6) Add water into the tray—about 100 ml for each pot (fill the tray 3 times). • 7) Grow the corn for 8 days in growth room at 22° C. (until the second leaf is emerged). B. Preparation of Spore Suspension [from Corn Leaves] for Inoculation • 1) Insert 20 infected corn leaves with spores into a sterile 50-ml tube. • 2) Add 50 ml of cold 0.05% Tween® 20 solution. • 3) Insert the tube into a sealed, ice cold plastic box. • 4) Shake the box using a shaker for 15 min at 3000 RPM. • 5) Transfer the suspension (without the leaves) into a clean sterile 50-ml tube. • 6) Filter the spore suspension through 16 layers of gauze into another sterile 50-ml tube. • 7) Keep the tube with the spore suspension on ice. • 8) Wash and concentrate the spores on a 5-micron membrane filter. Wash 4 times with ice-cold sterile water and collect the spores in 0.05% Tween® 20 solution. • 9) For inoculation, dilute the spore suspension to get spore concentration of 8000 spores/ml using cold 0.05% Tween® 20 solution. […]
Test [8] deals with Phytophthora infestans. The format is cell-based. The settings on record: Phytophthora infestans on tomato leaf discs; activity grade x repeats/12 x100.

Like-named read-outs stand apart in the source and are kept apart here.

As for `CN[C@H]1CCC(c2ccc(Cl)c(Cl)c2)c2ccccc21.Cl` (stereo in doubt) [Compound 3, (1S,4R)-4-(3,4-dichlorophenyl)-N-methyl-1,2,3,4-tetrahydronaphthalen-1-aminium chloride], the “Mean leaf surface area (0-3) covered by Phytophthora” value is given as 0.7 in test [1] (Exp. 487, 200 ppm in 0.1% base (pH = 6) + Silwet 0.005%, not treated 2.6); 0.1 in test [1] (Exp. 487, 200 ppm in DMSO 6% + Silwet 0.005%, 0=clear, 3=high coverage, not treated 2.6); 0.3 in test [1] (Exp. 492, 200 ppm in 0.1% base (pH = 6) + Silwet 0.005%, not treated 3); 0.4 in test [1] (Exp. 492, 200 ppm in DMSO 6% + Silwet 0.005%, not treated 3); 0.8 in test [1] (Exp. 500, 200 ppm in 0.1% base (pH = 6) without Silwet, not treated 3).
In the case of `COc1cc2c(cc1O)[C@@H](c1ccc(O)c(O)c1)[C@H](C)[C@H](C)C2` [Compound 2, 4-((1R,2R,3R)-7-hydroxy-6-methoxy-2,3-dimethyl-1,2,3,4-tetrahydronaphthalen-1-yl)benzene-1,2-diol], the “Relative Activity value (%)” value worked out at 14% in test [2], 14% in test [3], 20% in test [4] and 50% in test [5].
For `C[C@H]1[C@H](c2ccc(O)c(O)c2)c2cc(O)c(O)cc2C[C@H]1C` [Compound 1, (5R,6R,7R)-5-(3,4-dihydroxyphenyl)-6,7-dimethyl-5,6,7,8-tetrahydronaphthalene-2,3-diol], the “Relative Activity value (%)” value in test [2] worked out at 50%; in test [3], 14%; in test [4] it was 100%; in test [8], 25%; in test [5] it was 50%. Moreover, the “average efficacy in preventing and controlling Puccinia triticina” value in test [6] (200 ppm) is reported as 95.17%; in test [6] (400 ppm), 97.06%. Also, in test [7], the “efficacy in preventing and controlling Puccinia sorghi in corn plants (in words)” value was “very good efficacy”.

These data come from patent US20230098202A1 (priority 2020, published 2023).
